“Also recorded” adds a separate entry of the source.
How the values were obtained:
HEC-88nu = experiment: 8-day growth inhibition; assay type: cell-based; conditions: Endometrial, 8-day assay
NCI-H209 = experiment: 8-day growth inhibition; assay type: cell-based; conditions: SCLC, NCI-H209, 8-day assay
HEC-59 = experiment: 8-day growth inhibition; assay type: cell-based; conditions: Endometrial, HEC-59, 8-day assay
PARP = conditions: 100 mg/kg, preclinical studies; cited from earlier work
NCI-H929 = experiment: 8-day growth inhibition; assay type: cell-based; conditions: Myeloma, NCI-H929, 8-day assay
MDA-MB-453 = experiment: 8-day growth inhibition; assay type: cell-based; conditions: Breast, MDA-MB-453, 8-day assay
NCI-H211 = experiment: 8-day growth inhibition; assay type: cell-based; conditions: SCLC, NCI-H211, 8-day assay
MDA-MB-468 = experiment: 8-day growth inhibition; assay type: cell-based; conditions: Breast, MDA-MB-468, 8-day assay
advanced solid tumours = experiment: Tumour response by RECIST 1.1; assay type: in vivo, human
Method: Tumour assessments (computed tomography, magnetic resonance imaging, photographs and bone scans, as suitable for tumour type), based on Response Evaluation Criteria in Solid Tumors version 1.1, were performed at screening and subsequently every 8 weeks until disease progression.

HEC-251 = experiment: 8-day growth inhibition; assay type: cell-based; conditions: Endometrial, HEC-251, 8-day assay
[1] = 2-compartment pharmacokinetic model; assay type: in vivo, human; conditions: model estimate
Description: In the second stage, the final parameters from the pharmacokinetic model were fixed for sequential PK/PD modelling.

HepG2 = experiment: 8-day growth inhibition; assay type: cell-based; conditions: HCC, HepG2, 8-day assay
HEC-108 = experiment: 8-day growth inhibition; assay type: cell-based; conditions: Endometrial, HEC-108, 8-day assay
MDA-MB-157 = experiment: 8-day growth inhibition; assay type: cell-based; conditions: Breast, MDA-MB-157, 8-day assay
NCI-H146 = experiment: 8-day growth inhibition; assay type: cell-based; conditions: SCLC, NCI-H146, 8-day assay
BT-20 = experiment: 8-day growth inhibition; assay type: cell-based; conditions: Breast, BT-20, 8-day assay
A549 = experiment: 8-day growth inhibition; assay type: cell-based; conditions: NSCLC, A549, 8-day assay
HCT-116 = experiment: 8-day growth inhibition; assay type: cell-based; conditions: Colon, HCT-116, 8-day assay
NCI-H82 = experiment: 8-day growth inhibition; assay type: cell-based; conditions: SCLC, NCI-H82, 8-day assay
NCI-H524 = experiment: 8-day growth inhibition; assay type: cell-based; conditions: SCLC, NCI-H524, 8-day assay
SNG-ll = experiment: 8-day growth inhibition; assay type: cell-based; conditions: Endometrial, 8-day assay
RL = experiment: 8-day growth inhibition; assay type: cell-based; conditions: NHL B cell lymphoma, 8-day assay
PARP2 = conditions: read-out: IC50, enzymatic activity of PARP2; cited from earlier work
HL-60 = experiment: 8-day growth inhibition; assay type: cell-based; conditions: Promyelocytic leukemia, HL-60, 8-day assay
HCC70 = experiment: 8-day growth inhibition; assay type: cell-based; conditions: Breast, HCC70, 8-day assay
HEC-1B = experiment: 8-day growth inhibition; assay type: cell-based; conditions: Endometrial, 8-day assay
SNU-182 = experiment: 8-day growth inhibition; assay type: cell-based; conditions: HCC, SNU-182, 8-day assay
AN3 CA = experiment: 8-day growth inhibition; assay type: cell-based; conditions: Endometrial, 8-day assay
HEC-1 = experiment: 8-day growth inhibition; assay type: cell-based; conditions: Endometrial, HEC-1, 8-day assay
sVEGFR3 = experiment: Serum biomarker analysis, sVEGFR3; assay type: in vivo, human; conditions: data not shown
Method: Two pre-dose, multiple post-dose and off-treatment time points were included. Serum samples were tested for concentrations of soluble vascular endothelial growth factor receptor (VEGFR)2, VEGFR3 and soluble interleukin-2 receptor α (sIL-2Rα/CD25), using the bead-based Human Soluble Cytokine Receptor Panel assay kit. The two baseline samples (days −3 and −2 prior to dosing) were averaged, and the mean was used to calculate percent change at each of the post-dosing time points.

MCF-7 = experiment: 8-day growth inhibition; assay type: cell-based; conditions: Breast, MCF-7, 8-day assay
K562 = experiment: 8-day growth inhibition; assay type: cell-based; conditions: Erythroleukemia from CML patient, K562, 8-day assay

## O=c1[nH]nc2c3c(cccc13)N=C(CN1Cc3ccccc3C1)N2 [E7449]
HEC-88nu
  IC50: 1140 nM
NCI-H209
  IC50: 620 nM
HEC-59
  IC50: 2440 nM
PARP
  PARP inhibition in tumours: sustained PARP inhibition
NCI-H929
  IC50: 5.2 µM
MDA-MB-453
  IC50: 6.2 µM
NCI-H211
  IC50: 480 nM
MDA-MB-468
  IC50: 2500 nM
Advanced solid tumours; 1/6
  ORR in patients with germline-mutated BRCA: […]
Advanced solid tumours; 2/41, all cohorts
  Objective response rate (ORR): […]
Advanced solid tumours; 3/6
  Patients with BRCA mutations with partial response or stable disease: […]
Advanced solid tumours; 13 of 41 patients
  Best overall response of stable disease, patients: 31.7%
Advanced solid tumours; 13 patients
  Median duration of stable disease: […]
Advanced solid tumours; BRCA-mutated patient, platinum naïve, breast
  Best Overall Response to E7449: Progressive Disease
Advanced solid tumours; BRCA-mutated patient, platinum naïve, pancreas
  Best Overall Response to E7449: Stable Disease
Advanced solid tumours; BRCA-mutated patient, platinum resistant, breast
  Best Overall Response to E7449: Progressive Disease
Advanced solid tumours; BRCA-mutated patients, platinum sensitive, ovary (one line per patient)
  Best Overall Response to E7449: Stable Disease; also recorded: Partial Response; also recorded: Progressive Disease
Advanced solid tumours; of 13 patients with SD
  Patients with durable (>23 weeks) stable disease: 8
Advanced solid tumours; of the 35 patients evaluated for best overall response
  Patients with a decrease in target lesion size: […]
Advanced solid tumours; ovarian cancer, 1 each in 600-mg and 800-mg cohorts
  Partial responses, patients: 2
HEC-251
  IC50: […]
[1]; central to peripheral compartment
  k12: […]
[1]; all doses fitted
  V/F, apparent volume of distribution for the central compartment: 149.7 L
[1]; peripheral to central compartment
  k21: […]
HepG2
  IC50: 3.8 µM
HEC-108
  IC50: […]
MDA-MB-157
  IC50: […]
NCI-H146
  IC50: 930 nM
BT-20
  IC50: 7.9 µM
A549
  IC50: 2200 nM
HCT-116
  IC50: […]
NCI-H82
  IC50: 470 nM
NCI-H524
  IC50: 690 nM
SNG-ll
  IC50: 5.26 µM
RL
  IC50: 2500 nM
PARP2
  IC50: […]
HL-60
  IC50: 10.3 µM
HCC70
  IC50: 9.3 µM
HEC-1B
  IC50: 7.27 µM
SNU-182
  IC50: 5.4 µM
AN3 CA
  IC50: 1490 nM
HEC-1
  IC50: […]
sVEGFR3
  Change in serum concentration of sVEGFR3 from baseline: […]
MCF-7
  IC50: 1900 nM
K562
  IC50: 4.3 µM

Source: paper PMC7434893 (British Journal of Cancer, 2020)
